# Source: PubChem BioAssay (NCI)
# “And” between values parts separate entries of the source, which are not always exact repeats. Equal entries are not always repeated.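 Where inhibition never reached the appropriate level, the endpoint shown equals the highest concentration tested. Otherwise, values were interpolated linearly from a five-concentration, 48-hour dose response in 96-well plates. GI50 = concentration required for 50% inhibition of growth. TGI: concentration producing complete growth inhibition.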
# Assays:
# Experiment in all cases: NCI-60 cell line screen, 48 h
# [1] = system: CAKI-1 renal
# [2] = system: HCT-116 colon
# [3] = system: SNB-75 CNS
# [4] = system: SF-268 CNS
# [5] = system: MCF7 breast
# [6] = system: NCI-H460 lung
# [7] = system: SF-295 CNS
# [8] = system: RPMI-8226 leukemia
# [9] = system: UACC-62 melanoma
# [10] = system: OVCAR-4 ovarian
# [11] = system: HL-60(TB) leukemia
# [12] = system: KM12 colon
# [13] = system: SK-OV-3 ovarian
# [14] = system: SR leukemia
# [15] = system: SK-MEL-28 melanoma
# [16] = system: SN12C renal
# [17] = system: OVCAR-8 ovarian
# [18] = system: NCI-H522 lung
# [19] = system: EKVX NSCLC
# [20] = system: LOX IMVI melanoma
# [21] = system: U251 CNS
# [22] = system: HOP-92 NSCLC
# [23] = system: MOLT-4 leukemia
# [24] = system: M14 melanoma
# [25] = system: SNB-19 CNS
# [26] = system: K-562 leukemia
# [27] = system: DU-145 prostate
# [28] = system: MALME-3M melanoma
# [29] = system: CCRF-CEM leukemia
# [30] = system: RXF 393 renal
# [31] = system: SK-MEL-5 melanoma
# [32] = system: A549 NSCLC
# [33] = system: IGROV1 ovarian
# [34] = system: SF-539 CNS
# [35] = system: 786-0 renal
# [36] = system: UO-31 renal
# [37] = system: MDA-MB-435
# [38] = system: HT29 colon
# [39] = system: ACHN renal
# [40] = system: NCI-H23 lung
# [41] = system: SW-620 colon
# [42] = system: SK-MEL-2 melanoma
# [43] = system: HOP-62 NSCLC
# [44] = system: COLO 205 colon
# [45] = system: T-47D breast
# [46] = system: MDA-MB-231 breast
# [47] = system: HCT-15 colon
# [48] = system: PC-3 prostate
# [49] = system: OVCAR-3 ovarian
# [50] = system: TK-10 renal
# [51] = system: BT-549 breast
# [52] = system: UACC-257 melanoma
# [53] = system: NCI-H226 lung
# [54] = system: OVCAR-5 ovarian
# [55] = system: NCI/ADR-RES ovarian
compound,measurement,setting,value
N#C/C(=C/N1CCN(C(=O)c2ccco2)C1=S)C(=O)c1ccccc1,GI50,[1],12.5 µM
same,TGI,[1],44.4 µM
same,GI50,[2],9.12 µM
same,TGI,[2],57 µM
same,GI50,[3],68.2 µM
same,TGI,[3],> 100 µM
same,GI50,[4],31.2 µM
same,TGI,[4],93.3 µM
same,GI50,[5],4.47 µM
same,TGI,[5],> 100 µM
same,GI50,[6],9.52 µM
same,TGI,[6],> 100 µM
same,GI50,[7],43.6 µM
same,TGI,[7],> 100 µM
same,GI50,[8],5.56 µM
same,TGI,[8],> 100 µM
same,GI50,[9],12.9 µM
same,TGI,[9],30.3 µM
same,GI50,[10],29.8 µM
same,TGI,[10],93.2 µM
same,GI50,[11],31.5 µM
same,TGI,[11],91.5 µM
same,GI50,[12],6.49 µM
same,TGI,[12],> 100 µM
same,GI50,[13],37.4 µM
same,TGI,[13],> 100 µM
same,GI50,[14],2.84 µM
same,TGI,[14],> 100 µM
same,GI50,[15],28 µM
same,TGI,[15],> 100 µM
same,GI50,[16],8.64 µM
same,TGI,[16],25 µM
same,GI50,[17],25.4 µM
same,TGI,[17],> 100 µM
same,GI50,[18],3.74 µM
same,TGI,[18],12.3 µM
same,GI50,[19],17.8 µM
same,TGI,[19],48 µM
same,GI50,[20],17.9 µM
same,TGI,[20],> 100 µM
same,GI50,[21],17 µM
same,TGI,[21],> 100 µM
same,GI50,[22],26.9 µM
same,TGI,[22],> 100 µM
same,GI50,[23],43.7 µM
same,TGI,[23],> 100 µM
same,GI50,[24],14.9 µM
same,TGI,[24],36.8 µM
same,GI50,[25],39.7 µM
same,TGI,[25],> 100 µM
same,GI50,[26],5.51 µM
same,TGI,[26],> 100 µM
same,GI50,[27],5.01 µM
same,TGI,[27],> 100 µM
same,GI50,[28],30.7 µM
same,TGI,[28],> 100 µM
same,GI50,[29],41.9 µM
same,TGI,[29],> 100 µM
same,GI50,[30],4.09 µM
same,TGI,[30],19.4 µM
same,GI50,[31],8.25 µM
same,TGI,[31],22.2 µM
same,GI50,[32],22 µM
same,TGI,[32],58.4 µM
same,GI50,[33],19.4 µM
same,TGI,[33],70.7 µM
same,GI50,[34],2.21 µM
same,TGI,[34],5.39 µM
same,GI50,[35],16.1 µM
same,TGI,[35],44.6 µM
same,GI50,[36],10.2 µM
same,TGI,[36],32.5 µM
same,GI50,[37],11 µM
same,TGI,[37],60.6 µM
same,GI50,[38],30.5 µM
same,TGI,[38],> 100 µM
same,GI50,[39],16.6 µM
same,TGI,[39],72.5 µM
same,GI50,[40],15.2 µM
same,TGI,[40],43.5 µM
same,GI50,[41],5.94 µM
same,TGI,[41],38.3 µM
same,GI50,[42],3.68 µM
same,TGI,[42],15.8 µM
same,GI50,[43],22 µM
same,TGI,[43],47 µM
same,GI50,[44],23.2 µM
same,TGI,[44],> 100 µM
same,GI50,[45],7.16 µM
same,TGI,[45],> 100 µM
same,GI50,[46],13.7 µM
same,TGI,[46],40.8 µM
same,GI50,[47],5.73 µM
same,TGI,[47],> 100 µM
same,GI50,[48],31.7 µM
same,TGI,[48],> 100 µM
same,GI50,[49],18.2 µM
same,TGI,[49],57.2 µM
same,GI50,[50],10.5 µM
same,TGI,[50],28.8 µM
same,GI50,[51],7.77 µM
same,TGI,[51],32.3 µM
CC(C)N=c1cc2n(-c3ccc(Cl)cc3)c3ccccc3nc-2cc1Nc1ccc(Cl)cc1,GI50,[1],1.73 µM
same,TGI,[1],> 20.9 µM
same,GI50,[3],1.23 µM
same,TGI,[3],15.9 µM
same,GI50,[4],1.73 µM
same,TGI,[4],> 50 µM
same,GI50,[5],1.28 µM and 2.36 µM
same,TGI,[5],> 100 µM
same,GI50,[6],0.778 µM
same,TGI,[6],> 50 µM
same,GI50,[7],1.36 µM
same,TGI,[7],> 50 µM
same,GI50,[8],0.821 µM
same,TGI,[8],2.62 µM
same,GI50,[9],1.96 µM
same,TGI,[9],> 50 µM
same,GI50,[10],1.29 µM
same,TGI,[10],> 100 µM
same,GI50,[11],1.04 µM
same,TGI,[11],2.46 µM
same,GI50,[12],1.18 µM
same,TGI,[12],> 50 µM
same,GI50,[52],2.58 µM
same,TGI,[52],> 50 µM
same,GI50,[13],2.15 µM
same,TGI,[13],> 50 µM
same,GI50,[14],2.48 µM
same,TGI,[14],> 100 µM
same,GI50,[15],> 50 µM
same,TGI,[15],> 50 µM
same,GI50,[16],0.92 µM and 2.74 µM
same,TGI,[16],> 100 µM
same,GI50,[17],2.79 µM
same,TGI,[17],> 100 µM
same,GI50,[19],1.4 µM
same,TGI,[19],> 100 µM
same,GI50,[21],1.07 µM and 3.11 µM
same,TGI,[21],> 100 µM
same,GI50,[22],0.629 µM
same,TGI,[22],2.83 µM
same,GI50,[23],2.56 µM
same,TGI,[23],> 100 µM
same,GI50,[24],1.01 µM and 2.29 µM
same,TGI,[24],2.31 µM and 5.62 µM
same,GI50,[25],2.21 µM
same,TGI,[25],> 50 µM
same,GI50,[26],2.24 µM
same,TGI,[26],> 100 µM
same,GI50,[27],3.14 µM and 3.41 µM
same,TGI,[27],> 100 µM
same,GI50,[29],0.75 µM and 2.49 µM
same,TGI,[29],> 100 µM
same,GI50,[30],0.921 µM
same,TGI,[30],4.72 µM
same,GI50,[31],0.634 µM and 1.28 µM
same,TGI,[31],1.26 µM and 2.59 µM
same,GI50,[32],1.85 µM and 1.84 µM
same,GI50,[33],0.586 µM and 0.296 µM
same,TGI,[33],> 50 µM
same,GI50,[34],> 50 µM
same,TGI,[34],> 50 µM
same,GI50,[35],1.52 µM and 3.12 µM
same,TGI,[35],> 100 µM
same,GI50,[37],1.04 µM and 1.8 µM
same,TGI,[37],2.74 µM and 4.46 µM
same,GI50,[53],1.43 µM
same,TGI,[53],> 50 µM
same,GI50,[38],0.537 µM and 0.827 µM
same,TGI,[38],> 50 µM and 6.27 µM
same,GI50,[39],1.18 µM and 2.18 µM
same,TGI,[39],> 100 µM
same,GI50,[54],2.15 µM
same,TGI,[54],> 100 µM
same,GI50,[41],2.96 µM
same,TGI,[41],> 100 µM
same,GI50,[43],4.71 µM and 4.81 µM
same,TGI,[43],> 100 µM
same,GI50,[44],1.17 µM and 1.41 µM
same,TGI,[44],4.21 µM and 5.03 µM
same,GI50,[45],2.37 µM
same,TGI,[45],> 50 µM
same,GI50,[46],0.618 µM and 1.07 µM
same,TGI,[46],> 50 µM
same,GI50,[55],2.3 µM
same,TGI,[55],> 100 µM
same,GI50,[47],0.54 µM and 1.61 µM
same,TGI,[47],> 100 µM
same,GI50,[48],0.891 µM and 1.9 µM
same,TGI,[48],> 50 µM
same,GI50,[49],1.21 µM
same,TGI,[49],2.76 µM
same,TGI,[50],> 100 µM
same,GI50,[51],1.47 µM
same,TGI,[51],> 50 µM
